Reference: US20040029965A1, “Formulations for reducing or eliminating toxicity of enviromental hormones containing ursodeoxycholic acid” (priority 2000, published 2004)
Marks after values point to notes of the source that are not given here.

System: C57B1/6J mice
Assay: Hematological changes in mice by a single subcutaneous injection of TCDD
Format: in vivo
Parameters: NEU / LYM / PLT: unit not given here
Description: Male C57B1/6J mice of 5 weeks old having the average weight of 18-22 g which had been bred in CRJ (Charles River in Japan) were purchased and used in this example as experimental animals. Those mice were acclimated under the constant breeding condition, i.e. the temperature of 24±1° C., the humidity of 60±10% and the light and darkness cycle of 12 hours, for one week and thereafter, utilized in the experiment.
2,3,7,8-tetrachlorodibenzo-p-dioxin (TCDD) dissolved in toluene (purity of 95% or more as a result of gas chromatography analysis), manufactured by Chem. Services Inc. in USA, was volatilized with nitrogen to obtain powder. The obtained powder was dissolved in a mixed solvent containing acetone and corn oil with a volume ratio of 1:6. The resulting solution each containing 110, 27.5 and 6.9 μg/kg of TCDD was subcutaneously injected to mice at a volume of 5 ml per body weight. […] The mice were supplied with the feed from 10 days before (pre-administration) to 60 days after administration of TCDD (post-administration).
Upon completion of the experiment for 60 days, the experimental animals were fasted for 24 hours and anesthetized with ether. Then, they were abdominally incised and blood was gathered from abdominal vena cava. They were sacrificed by the release of blood. Liver, kidneys, testes and epididymides were extracted and all the extracted organs were weighed. Only the testes were separately kept and observed under optical and electron microscopes. For biochemical finding test, serum was separated from blood with a centrifuge and the separated serum was analyzed with an automated blood biochemical analyzer, Dimension (Dupont, USA). Blood was put to another blood gathering bottle and then, analyzed with an automated blood cell analyzer, Celldyn (Abbott, USA).
The results are expressed as Mean±Standard Deviation values. For statistical analysis of the body weight, feed and water uptake, biochemical findings, hematological findings and the weight of organ in an acute toxicity test, verification was performed by one way analysis of variance (ANOVA) in case of equal distribution. In case significance was recognized in ANOVA, the Student's t-test was performed in the levels of p<0.05 and p<0.01.
For hematological findings, white blood cell (WBC), neutrophil (NEU), lymphocyte (LYM), monocyte (MONO), eosinophil (EOS), basophil (BASO) and red blood cell (RBC) counts, and hemoglobin concentration (HGB), hematocrit (HCT), mean cell volume (MCV), mean corpuscular hemoglobin (MCH), mean corpuscular hemoglobin concentration (MCHC), red blood cell distribution width (RDW) and platelet count (PLT) were measured and the results are as follows.

[1] = TCDD 6.9 μg/kg + UDCA 0.25 wt %
[2] = TCDD 27.5 μg/kg + UDCA 0.125 wt %
[3] = TCDD 27.5 μg/kg + UDCA 0.25 wt %
[4] = TCDD 27.5 μg/kg + UDCA 0.5 wt %

In the case of `C[C@H](CCC(=O)O)[C@H]1CC[C@H]2[C@@H]3[C@@H](O)C[C@@H]4C[C@H](O)CC[C@]4(C)[C@H]3CC[C@]12C` [UDCA, 3α, 7β-dihydroxy-5β-cholanoic acid], the HGB [1] is reported as 14.16 ± 0.44 g/dL, the LYM [1] is reported as 5.17 ± 1.49 10^3 and the MCH [1] is reported as 15.04 ± 0.25 pg. For the same compound, the MCHC [1] was 31.63 ± 0.58 g/dL, the MCV [1] was 47.56 ± 0.81 fL and the MONO [1] was 0.04 ± 0.02 10^3. The NEU [1] was 0.28 ± 0.07 10^3, the PLT [1] was 1141.22 ± 67.79 10^3 and the RBC [1] was 9.42 ± 0.37 10^6. The RDW [1] was 19.73 ± 0.91%, the WBC [1] was 5.68 ± 1.50 10^3 and the BASO (TCDD 6.9 μg/kg + UDCA 0.5 wt %) was 0.10 ± 0.06 10^3. For the same compound, the EOS (TCDD 6.9 μg/kg + UDCA 0.5 wt %) was 0.002 ± 0.002 10^3, the HCT (TCDD 6.9 μg/kg + UDCA 0.5 wt %) was 45.35 ± 0.93% and the HGB (TCDD 6.9 μg/kg + UDCA 0.5 wt %) was 14.47 ± 0.29 g/dL. The LYM (TCDD 6.9 μg/kg + UDCA 0.5 wt %) was 5.12 ± 1.13 10^3, the MCH (TCDD 6.9 μg/kg + UDCA 0.5 wt %) was 14.98 ± 0.19 pg and the MCHC (TCDD 6.9 μg/kg + UDCA 0.5 wt %) was 31.87 ± 0.41 g/dL. For the same compound, the MCV (TCDD 6.9 μg/kg + UDCA 0.5 wt %) was 47.08 ± 0.63 fL, the MONO (TCDD 6.9 μg/kg + UDCA 0.5 wt %) was 0.04 ± 0.03 10^3 and the NEU (TCDD 6.9 μg/kg + UDCA 0.5 wt %) was 0.34 ± 0.11 10^3. The PLT (TCDD 6.9 μg/kg + UDCA 0.5 wt %) was 1112.89 ± 76.53 10^3, the RBC (TCDD 6.9 μg/kg + UDCA 0.5 wt %) was 9.64 ± 0.26 10^6 and the RDW (TCDD 6.9 μg/kg + UDCA 0.5 wt %) was 20.19 ± 0.72%. The WBC (TCDD 6.9 μg/kg + UDCA 0.5 wt %) was 5.76 ± 1.13 10^3, the BASO [2] was 0.09 ± 0.04 10^3 and the EOS [2] was 0.002 ± 0.003 10^3. For the same compound, the HCT [2] was 43.77 ± 1.37 %, the HGB [2] was 14.64 ± 0.67 g/dL and the LYM [2] was 2.06 ± 0.81 10^3. The MCH [2] was 15.32 ± 0.39 pg, the MCHC [2] was 33.65 ± 1.04 g/dL and the MCV [2] was 45.51 ± 0.35 fL. The MONO [2] was 0.02 ± 0.01 10^3, the NEU [2] was 0.34 ± 0.10## 10^3 and the PLT [2] was 1172.44 ± 80.58## 10^3. For the same compound, the RBC [2] was 9.61 ± 0.29 10^6, the RDW [2] was 20.08 ± 1.20% and the WBC [2] was 3.69 ± 0.72 10^3. The BASO [3] was 0.18 ± 0.07 10^3, the EOS [3] was 0.008 ± 0.007 10^3 and the HCT [3] was 43.65 ± 1.24 %. For the same compound, the HGB [3] was 14.23 ± 0.55 g/dL, the LYM [3] was 2.99 ± 1.06## 10^3 and the MCH [3] was 15.01 ± 0.44 pg. For the same compound, the MCHC [3] was 32.58 ± 0.73 g/dL, the MCV [3] was 46.09 ± 0.42 fL and the MONO [3] was 0.05 ± 0.03 10^3. The NEU [3] was 0.48 ± 0.09## 10^3, the PLT [3] was 1069.70 ± 128.48## 10^3 and the RBC [3] was 9.48 ± 0.29 10^6. For the same compound, the RDW [3] was 19.99 ± 1.08%, the WBC [3] was 3.78 ± 1.19 10^3 and the BASO [4] was 0.14 ± 0.07 10^3. The EOS [4] was 0.005 ± 0.003 10^3, the HCT [4] was 44.49 ± 1.63 % and the HGB [4] was 14.80 ± 0.78 g/dL. The LYM [4] was 3.04 ± 0.77## 10^3, the MCH [4] was 15.46 ± 0.59 pg and the MCHC [4] was 33.23 ± 1.04 g/dL. For the same compound, the MCV [4] was 46.46 ± 0.86 fL, the MONO [4] was 0.05 ± 0.04 10^3 and the NEU [4] was 0.59 ± 0.23## 10^3. For the same compound, the PLT [4] was 1068.14 ± 84.28## 10^3, the RBC [4] was 9.57 ± 0.25 10^6 and the RDW [4] was 20.44 ± 0.82%. The WBC [4] was 3.71 ± 0.99 10^3.
